The values below come from patent publication US20100286247A1, “Methods of Protection from Oxidative Stress” (Trustees of Boston University, priority 2005, published 2010).

{P} = phosphate

Data set [1] deals with neonatal foreskin fibroblasts. Kind of data set: Hydrogen peroxide oxidative challenge, cell yields.
Procedure: Early passage neonatal foreskin fibroblasts were passed to 100 mm dishes and pretreated 24 hours after passage with 100 μM pTT or diluent control. […] For each experiment fresh H2O2 solutions were made in DMEM. The H2O2 and control DMEM solutions were made and sterilized through 0.45 μm syringe filters immediately before treatment. After the one-hour treatment with H2O2 or diluent control, fresh medium was provided. Cells were harvested at later timepoints by a brief washing in 1× EDTA, followed by trypsinization at 37° C. Cell yields were determined using the Coulter Z cell counter.
The hydrogen peroxide oxidative challenge assay data were generated with the combined results of four separate experiments. The averages for each treatment condition and timepoint studied (8, 24, 48, and 72 hours) were used to calculate the percent of adherent H2O2 treated cells relative to diluent-treated cells. Changes in cell yield were determined as a function of time using General Linear Model with repeated measure analysis (SPSS Version 10).
After 72 hours of pretreatment with either 100 μM pTT or diluent control, the same number of cells were replated with fresh 10% CS DMEM lacking pTT. The following day they were exposed to a dose of 25 μM H2O2 or DMEM control for 1 hour, and cell yields were determined at 8, 24, 48 and 72 hours following the H2O2 treatment.
Newborn fibroblasts cells were plated in DMEM supplemented with 10% CS. Forty-eight hours after plating, cells were provided fresh medium. Twenty-four hours later, cells were provided fresh medium containing 40 μM of p[sequence] (abbreviated as TO, SEQ ID NO: 1) or diluent as a control. Seventy-two hours later, cells were harvested and replated in fresh medium lacking oligonucleotides. Twenty-four hours later, cells were provided fresh H2O2 (25 μM) or diluent for 1 hour and then provided fresh DMEM with 10% CS. Cell yield was then measured in TO-pre-treated cultures as well as control cultures.
The subject of another data set is melanoma tumors. The settings on record: SCID mouse model; cited from earlier work.
For another data set, the system named is phospho-p53 (Ser-15). Kind of data set: Western blot of activated p53 (serine-15 phosphorylation). In kind it is cell-based, human. The settings on record: by 36-48 hours, sustained through 72 hours; 40 μM TO, 100 μM pTT. The procedure: Western blot analysis of proteins from cells treated and harvested in parallel with DCF time course studies was conducted as described above. Membranes were reacted with antibodies to total p53/DO-1 (1:1000 dilution, Oncogene Research Products, Cambridge, Mass.), anti-phoso-p53 (Ser-15) (1:1000 dilution, Cell Signaling Technology, Beverly, Mass.), and p21/Cip1/Waf1 (1:500 dilution, Transduction Laboratories, Lexington, Ky.), followed by appropriate secondary antibodies diluted 1:2000.

Another data set relates to total p53 protein. The settings on record: 40 μM, published reports; cited from earlier work.
Another data set has as its system tumor formation. The settings on record: nude mice repeatedly exposed to solar simulated UV; cited from earlier work.
The test system of a further data set is CAT mRNA. Kind of data set: Northern blot analysis of antioxidant enzyme mRNA: CAT. In kind it is cell-based, human. The settings on record: 100 μM pTT, 8-72 hours. The procedure:
(§1) Cell culture followed previously published methods.^92 Primary human newborn dermal fibroblasts were cultured from neonatal circumcised foreskin specimens. The skin samples were treated overnight in a 0.25% trypsin solution at 4° C. to separate the epidermis from the dermis. The separated dermis was then cut into pieces and plated onto etched plastic tissue culture dishes. Primary culture medium consisted of DMEM supplemented with 10% bovine CS, 50 U/ml penicillin and 50 μg/ml streptomycin sulfate. […] Secondary culture medium consisted of DMEM supplemented with 10% CS.
(§2) Purified 5′-phosphorylated thymidine dinucleotides (pTT) (Midland Certified Reagents, Inc., Texas) purified by gel filtration and analyzed by mass spectroscopy, were obtained in lyophilized form. […] The stock solution was syringe filter-sterilized through a 0.2 μm pore filter and spectrophotometrically analyzed (absorbance at 260 and 280 nm) to determine the concentration, and frozen in aliquots at −20° C. […]
(§3) Cells were harvested in Trizol (Gibco BRL, Gaithersburg, Md.) and stored at −70° C. […] RNA solutions were measured by spectrophotometer readings at 260 nm and 280 nm to determine concentration and purity. […]
(§4) Northern and western films as well as stained membranes and pictures of ethidium bromide-stained gels were digitally scanned and analyzed by densitometry. […]

The subject of data set [2] is primary human newborn dermal fibroblasts. The data set is described as follows: Determination of cell yields (Coulter counts). In kind it is cell-based. The procedure:
as §1
Equal numbers of fibroblasts were seeded into 32 mm culture dishes, and paired dishes were treated with pTT or diluent control as described above. At 24, 48 and 72 hours of treatment, the cells were harvested by trypsinization and counted in an automated cell counter (Coulter Z Series, Beckman Coulter, Inc., Fullerton, Calif.). The experiments were conducted in parallel with the MTS assay, using the same donor cells.
Cell yields of pTT-treated fibroblasts were compared to diluent using 2-way ANOVA and a total of four different experiments, to identify significant difference between treatment groups as a function of cell number and time. The parallel MTS assay also utilized the 2-way ANOVA, to compare changes in OD at 492 nm as a function of time and treatment modality. […]

Another data set deals with GPX mRNA. The data set is described as follows: Northern blot analysis of antioxidant enzyme mRNA: GPX. It is filed as cell-based, human. The settings on record: 100 μM pTT, 8-72 hours. How it is done:
as §1, §2, §3, §4

The next data set concerns SOD2 mRNA. Kind of data set: Northern blot analysis of antioxidant enzyme mRNA: SOD2. In kind it is cell-based, human. The conditions noted are these: 100 μM pTT, 8-72 hours, three donors. How it is done: as §1, §2, §3, §4
The next data set concerns SOD1 mRNA. The data set is described as follows: Northern blot analysis of antioxidant enzyme mRNA: SOD1. In kind it is cell-based, human. The settings on record: 100 μM pTT, 8-72 hours, three donors. The procedure: as §1, §2, §3, §4
Data set [3] deals with S91 melanoma cells, cultured melanocytes, guinea pig skin. The conditions noted are these: solutions of pTT; cited from earlier work.

As for “pGTTAGGGTTAG (5' {P}, sugars by position and backbone not given here) [TO]”, the “resistance to H2O2 measured by total cell yield” value in data set [1] (40 μM TO 72 hours pretreatment, 25 μM H2O2 1 hour, up to 48 hours) is on record as “increased resistance to H2O2”. Further, the “cells surviving oxidative challenge by H2O2 (cell yield as percent of own diluent control)” value in [1] (40 μM TO pretreatment, 25 μM H2O2, non-treated control 52%) came out at 75%. For the same substance, the melanoma tumors entry in the data set on melanoma tumors is reported as “reduced melanoma tumors”. In addition, the “phospho-p53-ser15 response, TO vs pTT” value in the data set with phospho-p53 (Ser-15) is recorded as “greater than to pTT”. The “time to p53 induction” value with total p53 protein is at most 8 h. In addition, the “incidence of tumor formation” value in the data set on tumor formation is listed as “decreased the incidence of tumor formation”.
In the case of “5′-phosphorylated thymidine dinucleotides [pTT]”, the “cell yields over time following exposure to H2O2 vs diluent pretreated” value in data set [1] (100 μM pTT 72 hours pretreatment, 25 μM H2O2 1 hour, p=0.0008) is given as “higher cell yields”. Also, in data set [1] (100 μM pTT pretreatment, 25 μM H2O2), the “cell yields at 8 hours after H2O2 treatment vs diluent-pretreated” value is “lower cell yields than in the diluent-pretreated group”. The “higher relative cell yields (percentage of respective H2O2 controls) vs diluent-pretreated” value in [1] (100 μM pTT pretreatment, 24 and 48 hours after 25 μM H2O2) is recorded as 10%. Further, the “CAT mRNA level compared to diluent” value in the data set on CAT mRNA is listed as “remain unchanged”. In data set [2] (100 μM pTT, 24-72 hours, 2-way ANOVA p=0.0079), the “rate of fibroblast growth (cell yields) during treatment vs diluent” value is recorded as “significantly decreased”. Further, in data set [2] (72 hours pretreatment with 100 μM pTT, no H2O2, p=0.0006), the “growth after replating in regular medium vs diluent-pretreated cells” value is “significantly stimulated growth”. The “GPX mRNA level compared to diluent” value in the data set with GPX mRNA is “remain unchanged”. Moreover, the “SOD2 mRNA level compared to diluent” value with SOD2 mRNA was “no difference between pTT- and diluent-treated cells”. In addition, the “SOD1 mRNA level compared to diluent” value in the data set on SOD1 mRNA was “no difference between pTT- and diluent-treated cells”. In addition, the melanin production entry in [3] is “enhanced melanin production”.
